SMILES strings stand for the structures.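 96-well plates; 48 h exposure; 5 concentrations. Endpoints by linear interpolation between flanking doses. Not reached: highest tested concentration assigned. GI50 marks 50% less growth. TGI: total growth inhibition.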

Test systems include RXF 393 renal; 786-0 renal; T-47D breast; U251 CNS; UACC-62 melanoma; ACHN renal; NCI-H522 lung; LOX IMVI melanoma; A498 renal; MOLT-4 leukemia.
Test in all cases: NCI anticancer screen, dose series, 48 h

As for `C=C(CN1CCN(c2ccccn2)CC1)c1ccc(C(=O)Nc2ccccc2N)cc1`, the GI50 is 1.55 µM in the test with RXF 393 renal; 1.2 µM with 786-0 renal; 1.23 µM with T-47D breast; 1.48 µM with U251 CNS; 1.41 µM in the test with UACC-62 melanoma; 1.5 µM in the test on ACHN renal. The GI50 in the test on NCI-H522 lung is 1.56 µM. In addition, the TGI with RXF 393 renal is 13 µM; in the test on 786-0 renal, 8.15 µM; in the test on T-47D breast it was 20.9 µM; in the test on U251 CNS, over 50 µM; with UACC-62 melanoma, 9.99 µM; in the test with ACHN renal it was over 50 µM. The molecule further showed a TGI in the test with NCI-H522 lung of 9.36 µM.

For `CN(C)C(=S)/N=c1\ssc(=Nc2ccccc2)n1-c1ccccc1`, the TGI with RXF 393 renal is 44.3 µM; in the test on 786-0 renal it was 37.1 µM; with U251 CNS it was 70.7 µM; with LOX IMVI melanoma, 87 µM; in the test on ACHN renal, over 100 µM; with NCI-H522 lung, 34 µM. For the same molecule, the TGI in the test on A498 renal and in the test on MOLT-4 leukemia was over 100 µM in each case.

Consider `BrCc1ccc2ccc3ccc(CBr)nc3c2n1`, for which the TGI in the test on RXF 393 renal was 4.69 µM; with 786-0 renal it was 7.58 µM; with U251 CNS, 19 µM; in the test with UACC-62 melanoma, over 37.8 µM; in the test on LOX IMVI melanoma, 3.21 µM; in the test on ACHN renal, 5.58 µM. In addition, the TGI with A498 renal amounted to 8.38 µM; in the test with MOLT-4 leukemia it was 4.66 µM.

As to `C[C@]12CCC3c4ccc(O)cc4CCC3C1CC[C@@H]2NC(=O)/C=C/c1ccc(O)c(O)c1` (stereo partly drawn), the GI50 in the test on 786-0 renal was 10.4 µM; in the test with T-47D breast, 9.57 µM; in the test on U251 CNS, 6.63 µM; in the test with UACC-62 melanoma, 11.5 µM; with LOX IMVI melanoma, 3.86 µM; in the test on ACHN renal, 12.4 µM. Moreover, the GI50 is 6.25 µM in the test on NCI-H522 lung and 3.34 µM with MOLT-4 leukemia. Also, the TGI in the test with 786-0 renal is 29.2 µM; with T-47D breast it was over 100 µM; with U251 CNS, 21.1 µM; in the test with UACC-62 melanoma it was 24.4 µM; in the test with LOX IMVI melanoma, 17.8 µM; in the test with ACHN renal, 25.1 µM. Besides, the TGI in the test with NCI-H522 lung worked out at 27.4 µM; in the test with MOLT-4 leukemia, 24 µM.

Regarding `CCOC(=O)NN1C(=O)C(=P(c2ccccc2)(c2ccccc2)c2ccccc2)C(C(=O)OC)=C1C`, the TGI with RXF 393 renal, with 786-0 renal, with U251 CNS, in the test on UACC-62 melanoma, in the test on LOX IMVI melanoma and with ACHN renal was over 100 µM in each case. The TGI in the test on NCI-H522 lung, in the test on A498 renal and with MOLT-4 leukemia was over 100 µM each time.

Regarding `COc1ccc(CN2c3ccccc3Sc3ccccc32)cc1O`, the GI50 was 0.338 µM in the test with RXF 393 renal; 0.838 µM with 786-0 renal; 0.427 µM in the test on U251 CNS; 0.682 µM in the test on UACC-62 melanoma; 0.71 µM with LOX IMVI melanoma; 1.56 µM in the test on ACHN renal. The values for the GI50 in the test with NCI-H522 lung, with A498 renal and in the test with MOLT-4 leukemia were 0.241 µM, 2.71 µM and 0.42 µM, respectively. For the same molecule, the TGI in the test with RXF 393 renal came to 15.6 µM; in the test with 786-0 renal it was 21.5 µM; in the test with U251 CNS, 14.5 µM; in the test on UACC-62 melanoma it was 19.4 µM; in the test with LOX IMVI melanoma it was 18.8 µM; with ACHN renal, 21.8 µM. Further, the values for the TGI with NCI-H522 lung, in the test on A498 renal and in the test with MOLT-4 leukemia were 0.781 µM, 19 µM and 22.4 µM, respectively.

As for `COc1cc(C=NCC(=O)CSC(c2ccccc2)c2ccccc2)ccc1O`, the GI50 in the test with RXF 393 renal is 13.4 µM; with 786-0 renal, 14.9 µM; in the test with T-47D breast it was 2.86 µM; with U251 CNS, 14 µM; with UACC-62 melanoma, 13.6 µM; in the test on LOX IMVI melanoma, 10.5 µM. Moreover, the GI50 in the test with ACHN renal was 12.5 µM; in the test on MOLT-4 leukemia it was 9.05 µM. Also, the TGI with RXF 393 renal turned out to be 26.8 µM; in the test on 786-0 renal, 28.2 µM; in the test on T-47D breast, 12.3 µM; in the test on U251 CNS, 26.9 µM; with UACC-62 melanoma, 27.5 µM; in the test on LOX IMVI melanoma it was 23.5 µM. Further, the TGI in the test with ACHN renal and with MOLT-4 leukemia was 31.8 µM each time.

Turning to `COC(=O)C1=C(O)c2cc(OC)c(OC)c(OC)c2C(c2ccc3c(c2)OCO3)[C@@H]1C(=O)OC` (stereo partly drawn), the TGI in the test on RXF 393 renal is 6.26 µM; in the test with 786-0 renal it was over 100 µM; in the test with U251 CNS, over 100 µM; with UACC-62 melanoma it was over 100 µM; in the test with LOX IMVI melanoma, over 100 µM; in the test with ACHN renal, over 100 µM. The TGI is 19.2 µM in the test on A498 renal and over 100 µM with MOLT-4 leukemia.

As to `O=C1c2ccccc2-c2c1c1ccccc1c(=O)n2CCNCCNCCNCCNCCn1c2c(c3ccccc3c1=O)C(=O)c1ccccc1-2`, the GI50 with 786-0 renal was 0.102 µM; in the test on T-47D breast it was 1.99 µM; with U251 CNS it was over 100 µM; with UACC-62 melanoma it was 0.447 µM; in the test with LOX IMVI melanoma, 0.0182 µM; with ACHN renal it was 0.0446 µM. For the same molecule, the GI50 is 0.0202 µM in the test with NCI-H522 lung and under 0.0191 µM with MOLT-4 leukemia. Also, the TGI in the test with 786-0 renal was 2.19 µM; with T-47D breast, over 100 µM; in the test on U251 CNS, over 100 µM; in the test with UACC-62 melanoma, 1.71 µM; with LOX IMVI melanoma it was 0.0703 µM; with ACHN renal it was 0.58 µM. Besides, the TGI in the test with NCI-H522 lung is 0.474 µM.

For the molecule `COC(=O)CCC(NC(=S)N/N=C(\C)c1cccs1)C(=O)OC` (stereo not drawn), the TGI with RXF 393 renal, in the test with 786-0 renal, with U251 CNS, in the test with UACC-62 melanoma, with LOX IMVI melanoma and in the test on ACHN renal was over 100 µM each time. Besides, the TGI in the test with NCI-H522 lung and in the test on A498 renal was over 100 µM each time.

On to `O=C(O)C(Cc1ccccc1)N1C(=O)/C(=C/C(Cl)=C/c2ccc([N+](=O)[O-])cc2)SC1=S` (stereo not drawn), for which the GI50 in the test on RXF 393 renal is 1.54 µM; in the test on 786-0 renal, 2.2 µM; in the test on U251 CNS it was 1.72 µM; in the test on UACC-62 melanoma, 2 µM; in the test on LOX IMVI melanoma, 1.64 µM; in the test on ACHN renal, 1.8 µM. Moreover, the results for the GI50 in the test on NCI-H522 lung, in the test on A498 renal and in the test with MOLT-4 leukemia were 1.72 µM, 1.65 µM and 3.14 µM, respectively. Further, the TGI came out at 3.02 µM in the test on RXF 393 renal; 5.02 µM in the test with 786-0 renal; 3.52 µM in the test with U251 CNS; 4.85 µM in the test with UACC-62 melanoma; 3.26 µM in the test with LOX IMVI melanoma; 3.3 µM with ACHN renal. Moreover, the TGI in the test on NCI-H522 lung is 4.47 µM; with A498 renal, 3.24 µM; in the test with MOLT-4 leukemia, over 100 µM.

(Values after PubChem BioAssay (NCI).)
